From patent publication US20090317436A1, “COMPUTER DEVICES AND ACCESSORIES” (priority 2006, published 2009)

Experiments:
Format in all cases: cell-based
[1] = tested on: Staphylococcus aureus NCTC 6571; test: Lethal photosensitization of S. aureus by photosensitizer-gold nanoparticle mixtures (Examples 2-8, Table 2), viable counting; settings: for effect of diluting the gold nanoparticles on killing of S. aureus: 2 nm gold nanoparticles; for enhancement of lethal photosensitization compared with TB in the absence of nanogold: 15 nm nanogold
Experimental: Gold nanoparticles of approximately 15 nm in diameter (batches NN1 and NN2 above) were mixed with an equal volume of aqueous toluidine blue O (TB) and left at room temperature for 15 minutes. TB was used at a final concentration of 1, 5, 10, 20 or 50 μM.
100 μl of the TB-gold mixture was added to 100 μl of a suspension of Staphylococcus aureus NCTC 6571 in phosphate buffered saline (PBS) (adjusted to an optical density of 0.05), and samples were irradiated with a fluorescent white light (28 W) for 10 minutes. S. aureus+TB only, and S. aureus+PBS, without photosensitizer or nanogold were used as controls. The final concentration of nanogold used was 1×10^15 particles/ml.
After irradiation, the numbers of surviving bacteria were enumerated by viable counting.
The method of Example 2 was repeated using gold nanoparticles of 2 nm diameter (British Biocell International). The final concentration of nanogold used was 4×10^13 particles/ml. TB was used at a final concentration of 10, 20 or 50 μM.
Experiments were performed as for Example 3, with the following modifications: Prior to mixing with the photosensitizer, the gold nanoparticles were either left undiluted, or diluted 1 in 10 or 1 in 100 in sterile, distilled water. The nanoparticles were then added to TB (final concentration 20 μM).
The samples were then illuminated for 30 seconds using a fibre optic white light source (Schott KL200). The surviving bacteria were enumerated by viable counting as before.
Example 4 was repeated using methylene blue (MB; 20 μM) as the photosensitizer.
Example 5 was repeated using 2 nm gold nanoparticles (British Biocell International).
Example 6 was repeated using tin chlorin e6 (SnCe6; 20 μg/ml) as the photosensitizer. The illumination time was 10 minutes. […]

[2] = tested on: Staphylococcus aureus NCTC 6571; test: Lethal photosensitization of S. aureus using a different TBO-tiopronin-gold nanoparticle conjugate (Examples 6-7, Table 4); settings: white light 30 mins; free TBO control
[3] = tested on: Staphylococcus aureus NCTC 6571; test: Lethal photosensitization of S. aureus by photosensitizer-gold nanoparticle mixtures (Examples 2-8, Table 2), viable counting; settings: Example 2
[4] = tested on: Staphylococcus aureus NCTC 6571; test: Lethal photosensitization of S. aureus using TBO-tiopronin-gold nanoparticle conjugate (Examples 2-5, Table 3); settings: Example 4, any length of time
[5] = tested on: Staphylococcus aureus NCTC 6571; test: Lethal photosensitization of S. aureus by toluidine blue/gold nanoparticle mixture (Example 1), viable counting
Experimental: Gold nanoparticles (2.0 nm diameter; British Biocell International) in water (15×10^13 particles per ml) were mixed with an equal volume of an aqueous solution of toluidine blue O (40 μM) and left at room temperature for 15 minutes. 100 μl of the gold-TB solution was added to 100 μl of a suspension of Staphylococcus aureus NCTC 6571 in phosphate buffered saline (PBS) and this was irradiated with white light from an 18 W fluorescent white lamp for 10 minutes. Controls consisted of: • (i) TB (final concentration=10 μM) and bacteria, irradiated for the same period of time, • (ii) nanogold (diluted 1:1 with water) and bacteria, irradiated for the same period of time, • (iii) bacteria without TB or nanogold, not irradiated (“control”).
After irradiation, the number of surviving bacteria was determined by viable counting.

CN(C)c1ccc2nc3ccc(=[N+](C)C)cc-3sc2c1 [Methylene blue, methylene blue]
effectiveness of combination against Staphylococcus aureus ([1]; 20 mM with 2 nm gold nanoparticles at 4×10^11 to 4×10^13 particles/ml): particularly effective
effectiveness of combination against Staphylococcus aureus ([1]; 20 mM with 15 nm gold nanoparticles at 1×10^13 to 1×10^15 particles/ml): particularly effective
Result (% kill class) ([1]; Example 5, photosensitiser 20 mM, gold nanoparticles 15 nm, 1 × 10^13 particles/ml, fibre optic white light 30 seconds): **** (99-100% kill)
Result (% kill class) ([1]; Example 5, photosensitiser 20 mM, gold nanoparticles 15 nm, 1 × 10^14 particles/ml, fibre optic white light 30 seconds): **** (99-100% kill)
Result (% kill class) ([1]; Example 5, photosensitiser 20 mM, gold nanoparticles 15 nm, 1 × 10^15 particles/ml, fibre optic white light 30 seconds): **** (99-100% kill)
effect of diluting the gold nanoparticles on killing of S. aureus ([1]; Example 6, MB 20 μM): enhanced the killing of S. aureus slightly
Result (% kill class) ([1]; Example 6, photosensitiser 20 mM, gold nanoparticles 2 nm, 4 × 10^11 particles/ml, fibre optic white light 30 seconds): **** (99-100% kill)
Result (% kill class) ([1]; Example 6, photosensitiser 20 mM, gold nanoparticles 2 nm, 4 × 10^12 particles/ml, fibre optic white light 30 seconds): **** (99-100% kill)
Result (% kill class) ([1]; Example 6, photosensitiser 20 mM, gold nanoparticles 2 nm, 4 × 10^13 particles/ml, fibre optic white light 30 seconds): **** (99-100% kill)

C=CC1=C(C)C2=CC3=NC(=C(CC(=O)[O-])C4=NC(=C(C)C4=C([O-])[O-])C=c4[n-]c(c(C)c4CC)=CC1=N2)C(CCC(=O)[O-])C3C.[H+].[Sn+4] (stereo not shown) [Tin chlorine6, tin chlorin e6]
effectiveness of combination against Staphylococcus aureus ([1]; 20 mg/ml with 2 nm gold nanoparticles at 4×10^11 particles/ml): particularly effective
effect of diluting the gold nanoparticles on killing of S. aureus ([1]; Example 7, SnCe6 20 μg/ml, illumination 10 minutes): enhanced the killing of S. aureus
Result (% kill class) ([1]; Example 7, photosensitiser 20 m/ml, gold nanoparticles 2 nm, 4 × 10^11 particles/ml, illumination 10 minutes): *** (95-99% kill)
Result (% kill class) ([1]; Example 7, photosensitiser 20 m/ml, gold nanoparticles 2 nm, 4 × 10^12 particles/ml, illumination 10 minutes): ** (90-95% kill)
Result (% kill class) ([1]; Example 7, photosensitiser 20 m/ml, gold nanoparticles 2 nm, 4 × 10^13 particles/ml, illumination 10 minutes): — (less than 50% kill)

Cc1cc2nc3ccc(N(C)C)cc3[s+]c2cc1N.[Cl-] [Toluidine blue, toluidine blue O]
kills of the organism (in words) [2]: significant kills of the organism only at a concentration of 2.0 μm
Result (% kill class) ([3]; photosensitiser 100 mM, gold nanoparticles 15 nm, 1 × 10^15 particles/ml, fluorescent white light (28 W) 10 minutes): ** (90-95% kill)
enhancement of lethal photosensitization ([3]; with nanogold, TB 10 or 100 μM): little enhancement
effect when irradiated with white light [4]: no effect
effectiveness of combination against Staphylococcus aureus ([1]; 20 mM with 2 nm gold nanoparticles at 4×10^13 particles/ml): particularly effective
enhancement of lethal photosensitization ([1]; 2 nm nanogold particles, 10 μM or 50 μM TB): not when either 10 μM or 50 μM TB was used
enhancement of lethal photosensitization ([1]; 2 nm nanogold particles, 20 μM TB): enhancement of lethal photosensitization was evident
enhancement of lethal photosensitization compared with TB in the absence of nanogold ([1]; TB 1 μM): little enhancement
enhancement of lethal photosensitization compared with TB in the absence of nanogold ([1]; TB 5, 10 and 20 μM): enhancement was evident
enhancement of lethal photosensitization compared with TB in the absence of nanogold ([1]; TB 10 and 20 μM): Enhancement was greatest
effectiveness of combination against Staphylococcus aureus ([1]; 20 to 50 mM with 15 nm gold nanoparticles at 1×10^14 to 1×10^15 particles/ml): particularly effective
Result (% kill class) ([1]; Example 2, photosensitiser 1 mM, gold nanoparticles 15 nm, 1 × 10^15 particles/ml, fluorescent white light (28 W) 10 minutes): — (less than 50% kill)
Result (% kill class) ([1]; Example 2, photosensitiser 5 mM, gold nanoparticles 15 nm, 1 × 10^15 particles/ml, fluorescent white light (28 W) 10 minutes): * (50-90% kill)
Result (% kill class) ([1]; Example 2, photosensitiser 20 mM, gold nanoparticles 15 nm, 1 × 10^15 particles/ml, fluorescent white light (28 W) 10 minutes): **** (99-100% kill)
Result (% kill class) ([1]; Example 2, photosensitiser 50 mM, gold nanoparticles 15 nm, 1 × 10^15 particles/ml, fluorescent white light (28 W) 10 minutes): **** (99-100% kill)
enhancement of lethal photosensitization ([1]; Example 2, with nanogold, TB 20 and 50 μM): enhancement was greatest
Result (% kill class) ([1]; Example 3, photosensitiser 10 mM, gold nanoparticles 2 nm, 4 × 10^13 particles/ml, fluorescent white light (28 W) 10 minutes): * (50-90% kill)
Result (% kill class) ([1]; Example 3, photosensitiser 20 mM, gold nanoparticles 2 nm, 4 × 10^13 particles/ml, fluorescent white light (28 W) 10 minutes): **** (99-100% kill)
Result (% kill class) ([1]; Example 3, photosensitiser 50 mM, gold nanoparticles 2 nm, 4 × 10^13 particles/ml, fluorescent white light (28 W) 10 minutes): * (50-90% kill)
enhancement compared with undiluted nanogold ([1]; Example 4, TB 20 μM, nanoparticles diluted 1 in 10, white light 30 seconds): greater enhancement
Result (% kill class) ([1]; Example 4, photosensitiser 20 mM, gold nanoparticles 15 nm, 1 × 10^14 particles/ml, fibre optic white light 30 seconds): **** (99-100% kill)
Result (% kill class) ([1]; Example 4, photosensitiser 20 mM, gold nanoparticles 15 nm, 1 × 10^15 particles/ml, fibre optic white light 30 seconds): *** (95-99% kill)
% Kill ([5]; 18 W fluorescent white lamp 10 minutes, TB final 10 μM, 2.0 nm gold nanoparticles): 93.7%
kill of the bacterial suspensions ([5]; preliminary experiments, 30 minutes light exposure): total kills
S. aureus (cfu/ml) ([5]; surviving bacteria after 18 W fluorescent white lamp 10 minutes, TB final 10 μM, 2.0 nm gold nanoparticles): 8570000 cfu/ml

nile blue sulphate
effectiveness of combination against Staphylococcus aureus ([1]; 20 to 50 mM with 2 nm gold nanoparticles at 4×10^13 particles/ml): particularly effective
Result (% kill class) ([1]; Example 8, photosensitiser 10 mM, gold nanoparticles 2 nm, 4 × 10^13 particles/ml, illuminated 30 minutes): *** (95-99% kill)
Result (% kill class) ([1]; Example 8, photosensitiser 20 mM, gold nanoparticles 2 nm, 4 × 10^13 particles/ml, illuminated 30 minutes): **** (99-100% kill)
Result (% kill class) ([1]; Example 8, photosensitiser 50 mM, gold nanoparticles 2 nm, 4 × 10^13 particles/ml, illuminated 30 minutes): **** (99-100% kill)
